According to ChEMBL document CHEMBL1201862, “PubChem BioAssay data set” (2004):
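Results reflect a 48-hour exposure of cells in 96-well plates to compound at five concentrations. GI50 is the concentration that inhibits growth by half.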 Calls of active or inactive are those of the source. No stated cut-off is given here; in the data, active = GI50 up to about 1.1 µM and inactive = higher.

What was measured:
Experiment in all cases: inhibition of tumour cell growth, NCI panel, 48 h
[1] = tested on: CAKI-1
[2] = tested on: 786-0
[3] = tested on: LOX IMVI
[4] = tested on: COLO 205
[5] = tested on: DU-145
[6] = tested on: BT-549
[7] = tested on: OVCAR-4
[8] = tested on: OVCAR-8
[9] = tested on: SK-OV-3
[10] = tested on: TK-10
[11] = tested on: NCI-H522
[12] = tested on: SNB-75
[13] = tested on: KM12
[14] = tested on: PC-3
[15] = tested on: NCI/ADR-RES
[16] = tested on: RXF 393
[17] = tested on: SN12C
[18] = tested on: SR
[19] = tested on: A498

SMILES	GI50 [1]	GI50 [2]	GI50 [3]	GI50 [4]	GI50 [5]	GI50 [6]	GI50 [7]	GI50 [8]	GI50 [9]	GI50 [10]	GI50 [11]	GI50 [12]	GI50 [13]	GI50 [14]	GI50 [15]	GI50 [16]	GI50 [17]	GI50 [18]	GI50 [19]
Cc1ccc2c(O)cc(-c3cc4ccccc4s3)nc2n1	55 µM (inactive)	> 75.5 µM (inactive)	> 94.6 µM (inactive)	> 100 µM (inactive)	> 100 µM (inactive)	> 100 µM (inactive)	> 75 µM (inactive)	30.3 µM (inactive)	45.1 µM (inactive)	> 95.9 µM (inactive)	33.9 µM (inactive)	17.5 µM (inactive)	> 73.1 µM (inactive)	> 100 µM (inactive)	> 57.7 µM (inactive)	33.7 µM (inactive)	> 100 µM (inactive)		
Cc1ccc(CCCC(=O)O)cc1C	> 100 µM (inactive)	> 100 µM (inactive)	> 100 µM (inactive)		> 100 µM (inactive)	> 100 µM (inactive)	> 100 µM (inactive)	> 100 µM (inactive)		> 100 µM (inactive)	> 100 µM (inactive)	39.1 µM (inactive)	> 100 µM (inactive)	> 100 µM (inactive)	> 100 µM (inactive)	> 100 µM (inactive)	> 100 µM (inactive)	> 100 µM (inactive)	
O=c1c2cccnc2[s+]([O-])n1Cc1ccccc1 (configuration not stated)	> 100 µM (inactive)	> 100 µM (inactive)		> 100 µM (inactive)	> 100 µM (inactive)	> 100 µM (inactive)	> 100 µM (inactive)	> 100 µM (inactive)	> 100 µM (inactive)	> 100 µM (inactive)	> 100 µM (inactive)	> 100 µM (inactive)	> 100 µM (inactive)		> 100 µM (inactive)	> 100 µM (inactive)	> 100 µM (inactive)	> 100 µM (inactive)	> 100 µM (inactive)
COc1ccccc1N1CCN(S(=O)(=O)c2ccc(Cl)cc2)C1=N	> 100 µM (inactive)	99.5 µM (inactive)		73.6 µM (inactive)	47.5 µM (inactive)	> 100 µM (inactive)	87.9 µM (inactive)	63.2 µM (inactive)	> 100 µM (inactive)	60.7 µM (inactive)	40.5 µM (inactive)	> 100 µM (inactive)	82.4 µM (inactive)	56.8 µM (inactive)	61.2 µM (inactive)	> 100 µM (inactive)	> 100 µM (inactive)		> 100 µM (inactive)
CCOC(=O)C1=C(C)OC2(O)C=CC(O)=C3C(=O)N(c4ccccc4)C(=O)C312 (configuration not stated)	48.8 µM (inactive)	40.5 µM (inactive)	21.8 µM (inactive)	43.1 µM (inactive)	36.7 µM (inactive)	31.6 µM (inactive)	31.5 µM (inactive)	52 µM (inactive)	90.8 µM (inactive)	37.4 µM (inactive)	18.5 µM (inactive)	41.8 µM (inactive)	38.6 µM (inactive)	35.3 µM (inactive)	42.2 µM (inactive)	26.4 µM (inactive)	40.7 µM (inactive)	18.9 µM (inactive)	
CCOC(=O)C1CN(C2CC2)CCC1=O (configuration not stated)	> 100 µM (inactive)	> 100 µM (inactive)	> 100 µM (inactive)	> 100 µM (inactive)	> 100 µM (inactive)	> 100 µM (inactive)	> 100 µM (inactive)	> 100 µM (inactive)	> 100 µM (inactive)	> 100 µM (inactive)		> 100 µM (inactive)	> 100 µM (inactive)	> 100 µM (inactive)	> 100 µM (inactive)	> 100 µM (inactive)	> 100 µM (inactive)	> 100 µM (inactive)	
Nn1c(CCCCCCCCc2nnc(-c3c(O)ccc4ccccc34)n2N)nnc1-c1c(O)ccc2ccccc12	> 100 µM (inactive)	> 100 µM (inactive)	> 100 µM (inactive)	> 100 µM (inactive)	> 100 µM (inactive)	> 100 µM (inactive)	> 100 µM (inactive)	> 100 µM (inactive)	> 100 µM (inactive)	> 100 µM (inactive)	> 100 µM (inactive)	> 100 µM (inactive)	> 100 µM (inactive)	> 100 µM (inactive)	> 100 µM (inactive)		> 100 µM (inactive)	> 100 µM (inactive)	
CC(/C=N\NC(=S)N1CCCCC1)=N/NC(=S)N1CCCCC1	1.33 µM (inactive)	2.03 µM (inactive)	0.82 µM (active)	1.75 µM (inactive)	0.547 µM (active)	3.03 µM (inactive)	2.3 µM (inactive)	0.551 µM (active)	1.04 µM (active)	2.06 µM (inactive)	1.54 µM (inactive)	1.69 µM (inactive)	1.09 µM (active)	0.957 µM (active)	0.759 µM (active)	2.01 µM (inactive)	1.35 µM (inactive)		1.35 µM (inactive)
CCOC(=O)c1cn(CC)c2ccc3c(c2c1=O)S(=O)(=O)C=C3	> 100 µM (inactive)	> 100 µM (inactive)	> 100 µM (inactive)	> 100 µM (inactive)	> 100 µM (inactive)	> 100 µM (inactive)	> 100 µM (inactive)	> 100 µM (inactive)	> 100 µM (inactive)	> 100 µM (inactive)	> 100 µM (inactive)	> 100 µM (inactive)	> 100 µM (inactive)	> 100 µM (inactive)	> 100 µM (inactive)	47 µM (inactive)	> 100 µM (inactive)		> 100 µM (inactive)
CCCCNc1nc(N)nc(Nc2ccc(Br)cc2)c1N=O		17.5 µM (inactive)	31.6 µM (inactive)	47 µM (inactive)	96.8 µM (inactive)	44.7 µM (inactive)		70.5 µM (inactive)		> 100 µM (inactive)	36.4 µM (inactive)	52.2 µM (inactive)	> 100 µM (inactive)	67.5 µM (inactive)	39.4 µM (inactive)	32.7 µM (inactive)	58.7 µM (inactive)	6.43 µM (inactive)	
CC(NC(=O)C(N)CC(=O)O)NC(=O)N1CCCC1 (configuration not stated)	> 100 µM (inactive)	> 100 µM (inactive)	> 100 µM (inactive)	> 100 µM (inactive)	> 100 µM (inactive)	> 100 µM (inactive)	> 100 µM (inactive)	> 100 µM (inactive)	> 100 µM (inactive)	> 100 µM (inactive)	> 100 µM (inactive)	> 100 µM (inactive)	> 100 µM (inactive)	> 100 µM (inactive)	> 100 µM (inactive)	> 100 µM (inactive)	> 100 µM (inactive)		> 100 µM (inactive)
CC(C)=CCC/C(C)=C/COC(C)(C)C1=CCC(C)CC1.CC(C)=CCC/C(C)=C/COC1CC(C)CCC1=C(C)C (configuration not stated)	> 100 µM (inactive)	> 100 µM (inactive)		> 100 µM (inactive)	> 100 µM (inactive)	> 100 µM (inactive)	> 100 µM (inactive)	> 100 µM (inactive)	> 100 µM (inactive)	> 100 µM (inactive)	> 100 µM (inactive)	> 100 µM (inactive)	> 100 µM (inactive)	> 100 µM (inactive)		> 100 µM (inactive)	> 100 µM (inactive)	18.9 µM (inactive)	> 100 µM (inactive)
Cc1nn(C(=O)c2ccc(Cl)cc2)c2c1C(c1ccccc1O)SC(=N)N2 (configuration not stated)	> 10 µM (inactive)	> 10 µM (inactive)	> 10 µM (inactive)	> 10 µM (inactive)	> 10 µM (inactive)	> 10 µM (inactive)	> 10 µM (inactive)	> 10 µM (inactive)	> 10 µM (inactive)	> 10 µM (inactive)	> 10 µM (inactive)	> 10 µM (inactive)	> 10 µM (inactive)	> 10 µM (inactive)	> 10 µM (inactive)	> 10 µM (inactive)	> 10 µM (inactive)	> 10 µM (inactive)	
Cc1nn(C(=O)c2ccncc2)c2c1C(c1cccc([N+](=O)[O-])c1)SC(=N)N2 (configuration not stated)	> 10 µM (inactive)	> 10 µM (inactive)	> 10 µM (inactive)	> 10 µM (inactive)	> 10 µM (inactive)	> 10 µM (inactive)	> 10 µM (inactive)	> 10 µM (inactive)	> 10 µM (inactive)	> 10 µM (inactive)	> 10 µM (inactive)	> 10 µM (inactive)	> 10 µM (inactive)	> 10 µM (inactive)	> 10 µM (inactive)	> 10 µM (inactive)	> 10 µM (inactive)	> 10 µM (inactive)	
O=c1oc2ccccc2c(Nc2ccc3c(c2)Sc2ccccc2O3)c1[N+](=O)[O-]	26.1 µM (inactive)	22.7 µM (inactive)	33.3 µM (inactive)	16.3 µM (inactive)	27.8 µM (inactive)	27.8 µM (inactive)	25 µM (inactive)	30.8 µM (inactive)	35.2 µM (inactive)	23.6 µM (inactive)	16.4 µM (inactive)	23.2 µM (inactive)	24.7 µM (inactive)	19.4 µM (inactive)	26.9 µM (inactive)	23.4 µM (inactive)	28.9 µM (inactive)	24.8 µM (inactive)	
CCOC(=O)C1=NOC2(C=C(Br)C(=O)C(Br)=C2)C1	1.3 µM (inactive)	0.659 µM (active)	2.47 µM (inactive)	0.991 µM (active)	6.7 µM (inactive)	5.21 µM (inactive)	1.8 µM (inactive)	2.04 µM (inactive)	8.39 µM (inactive)	0.902 µM (active)	0.335 µM (active)	16.9 µM (inactive)	13.4 µM (inactive)	2.29 µM (inactive)	2.97 µM (inactive)	1.59 µM (inactive)	2.36 µM (inactive)		20.1 µM (inactive)
